For data set [1] the following is noted: in the presence of calcium and magnesium ions; MRM 1996, 35, 14-19; cited from earlier work.
The conditions of data set [2]: 40° C.; 20 MHz; aqueous solution containing 20 mol % calcium ascorbate and 3 eq. of Na^+; cited from earlier work.
For data set [3] the following is noted: biodistribution study; Investigative Radiology 1994, 29(2), S249-S250; cited from earlier work.
Data set [4] can be described thus: Relaxivity in aqueous solution. The settings on record: for Relaxivity r1, aqueous solution: 0.15 M NaCl aqueous solution, 20 MHz, 39° C.; for Relaxivity r1 5 MHz, aqueous solution / Relaxivity r1 10 MHz, aqueous solution: same experimental conditions as Table 1. It counts as physicochemical. Here is the method:
(§1) The relaxivity of the compounds of the invention was measured both in saline solution and in human serum, reconstituted from Seronorm^(R) Human (Nycomed Pharma), lyophilized human serum, and the resulting data are summarized in TABLES 1 and 2.
(§2) TABLE 1 reports the relativity values measured for some compounds of the invention at 20 MHz; the other experimental conditions used are detailed following the table itself.
(§3) TABLE 2 comprises the results obtained from tests carried out under the same experimental conditions as above and in which r1 and r2 relaxivities were measured in serum and in aqueous solution at lower fields, precisely at 5 and 10 MHz. Said data evidence the significant increase in relaxivity obtained in serum already at 5 MHz and are indicative of the potential advantageous use of the compounds of the invention in M.R.I. diagnostic imaging at low fields.

Data set [5] can be described thus: Relaxivity in human serum reconstituted from Seronorm Human. It is filed as physicochemical. The settings on record: for Relaxivity r1 5 MHz, Seronorm / Relaxivity r1 10 MHz, Seronorm: same experimental conditions as Table 1; for Relaxivity r1, Seronorm Human: calculated between 0 and 1 mM, 20 MHz, 39° C. Here is the method:
as §1, §2, §3

The text below walks through data of US6337064B1, “Manganese chelates with high relaxivity in serum” (Dibra S.p.A., priority 1998, dated 2002).

The structures appear in SMILES notation. Like-named read-outs stand apart in the source and are kept apart here.

For `Cc1ncc(COP(=O)(O)O)c(CN(CCN(CC(=O)[O-])Cc2c(COP(=O)(O)O)cnc(C)c2O)CC(=O)[O-])c1O.[Mn+2].[Na].[Na].[Na]` [Mn-DPDP], the “Stability of the complex in liver homogenate” value in data set [1] is “dissociation”. Besides, the “Relaxivity r1, aqueous solution” value in data set [2] is 2.8^(5) L.mmol^−1.s^−1. Also, the “Stability of the complex in vivo” value in data set [3] is “this complex dissociates, releasing manganese which accumulates in liver, pancreas and kidneys”.

With `C[NH2+]C[C@H](O)[C@@H](O)[C@H](O)[C@H](O)CO.C[NH2+]C[C@H](O)[C@@H](O)[C@H](O)[C@H](O)CO.O=C([O-])CN(CCN(CC(=O)[O-])[C@H](Cc1ccccc1)C(=O)[O-])CC(=O)[O-].[Mn+2]` [Example 1, Manganese complex of N-[2-[bis(carboxymethyl)-amino]ethyl]-N-(carboxymethyl)-D-phenylalanine salified with 1-deoxy-1-(methylamino)-D-glucitol (1:2)], the “Relaxivity r1, aqueous solution” value in data set [4] (pH 7.3) was 2.93^6) mM^−1 s^−1. Further, in data set [4], the “Relaxivity r1 5 MHz, aqueous solution” value was determined as 4.3 mM⁻¹ s⁻¹ and the “Relaxivity r1 10 MHz, aqueous solution” value came to 3.7 mM⁻¹ s⁻¹. Also, in data set [5], the “Relaxivity r1 5 MHz, Seronorm” value was 11.8 mM⁻¹ s⁻¹; the “Relaxivity r1 10 MHz, Seronorm” value amounted to 12.8 mM⁻¹ s⁻¹; the “Relaxivity r1, Seronorm Human” value was 15^(7) mM^−1 s^−1.

For `C[NH2+]C[C@H](O)[C@@H](O)[C@H](O)[C@H](O)CO.C[NH2+]C[C@H](O)[C@@H](O)[C@H](O)[C@H](O)CO.O=C([O-])CN(CCN(CC(=O)[O-])[C@@H](Cc1ccccc1)C(=O)[O-])[C@@H](Cc1ccccc1)C(=O)[O-].[Mn+2]` [Example 2, Manganese complex of [N,N′-1,2-ethanediylbis [N-(carboxymethyl)-L-phenylalanine]] salified with 1-deoxy-1-(methylamino)-D-glucitol (1:2)], in data set [4] (pH 7.3), the “Relaxivity r1, aqueous solution” value is recorded as 3.15^(6) mM^−1 s^−1. Further, in data set [4], the “Relaxivity r1 5 MHz, aqueous solution” value is 4.5 mM⁻¹ s⁻¹ and the “Relaxivity r1 10 MHz, aqueous solution” value worked out at 3.9 mM⁻¹ s⁻¹. In data set [5], the “Relaxivity r1 5 MHz, Seronorm” value amounted to 19.9 mM⁻¹ s⁻¹; the “Relaxivity r1 10 MHz, Seronorm” value is 26.1 mM⁻¹ s⁻¹; the “Relaxivity r1, Seronorm Human” value is on record as 27^(7) mM^−1 s^−1.

Regarding `[Cl][Mn][Cl]` [MnCl2, reference compound], the “Relaxivity r1, aqueous solution” value in data set [4] (pH 4) was 6.59^(2) mM^−1 s^−1. Moreover, the “Relaxivity r1, Seronorm Human” value in data set [5] (pH 7.0) is given as 53^(3) mM^−1 s^−1.
